Data on four compounds can be found in PMC9107402 (European Journal of Clinical Pharmacology, 2022).

SMILES strings stand for the structures. Read-outs that look alike come from different tables or passages of the source.

For series [1] the following is noted: cited from earlier work.
The test system of the next series is CYP3A. Kind of series: Calculated metabolic clearance of microdosed midazolam (limited sampling AUC 2-4 h). Particulars: for midazolam metabolic clearance, % of the baseline value: during fluconazole. The method, then: (§1) Blood samples were centrifuged for 10 min at 2500 g and 4 °C, and separated plasma was distributed into 4 aliquots, each stored at − 20 °C until analysis.
Midazolam concentrations in plasma were determined by UPLC-MS/MS.

The next series deals with CYP3A4. Particulars: cited from earlier work.
For series [2] the following is noted: alteration of gastric pH; cited from earlier work.
The subject of series [3] is CYP2C19. Kind of series: clinical. Particulars: human, in vivo; for Cl/F / Tmax: po. The method, then: This was an open-label clinical trial with fixed sequence design consisting of a total of seven inpatient study days and eight short visits for each participant.
The CYP2C19 perpetrator fluconazole (Fluconazol HEXAL® 200 mg, HEXAL) was given for 5 days in oral doses of 400 mg on day 1 and 200 mg on days 2 to 5. […] A diary was used to ensure correct intake of fluconazole and rifampicin at home.
as §1
The statistical analysis was performed using Prism 8.4 (GraphPad Software Inc., La Jolla, CA, USA).

For series [4], the system named is CYP2C19. Particulars: cited from earlier work.

For the compound `OC(Cn1cncn1)(Cn1cncn1)c1ccc(F)cc1F` [fluconazole], the “effect of changes in gastric pH on fluconazole Cmax, tmax, and AUC” value in series [1] was “did not affect”.

As to `Cc1ncc2n1-c1ccc(Cl)cc1C(c1ccccc1F)=NC2` [midazolam], the “midazolam metabolic clearance, % of the baseline value” in the series on CYP3A (with 100 µg omeprazole) is reported as 28%; with CYP3A (with 20 mg omeprazole), 26%. For the same compound, the “increase of midazolam metabolic clearance” value in the series on CYP3A (during rifampicin) is on record as 10–12 fold; in the series on CYP3A (rifampicin day 5) it was 10.1 fold; in the series with CYP3A (rifampicin day 7) it was 11.9 fold. In addition, in the series on CYP3A4 (600 mg rifampicin daily over 5 days), the “midazolam AUC decrease to % of the baseline value” is recorded as 4.1%. Further, in the series with CYP3A4 (oral 7.5 mg midazolam during fluconazole treatment), the “increase of midazolam AUC” value is recorded as 3.6 fold.

On to `Cc1c(O)cccc1C(=O)N[C@@H](CSc1ccccc1)[C@H](O)CN1C[C@H]2CCCC[C@H]2C[C@H]1C(=O)NC(C)(C)C` [nelfinavir], for which, in series [2], the “reduction of nelfinavir AUC by omeprazole” value is given as “approximately one third” and the “reduction of nelfinavir Cmax by omeprazole” value is on record as “approximately one third”.

For orientation: clearance means the rate of elimination divided by the concentration. The term Tmax denotes the time from dosing to the highest level. Consider `COc1ccc2[nH]c([S+]([O-])Cc3ncc(C)c(OC)c3C)nc2c1` (stereo not shown) [omeprazole], for which the “dose-normalized Cmax” value in the series on CYP2C19 [3] is reported as 896 ng/mL. For the same compound, the clearance in the series on CYP2C19 [3] (100 ug, omeprazole clearance) turned out to be 476 mL/min. In addition, the “higher AUC in the poor metabolizer in comparison with the EM group” value with CYP2C19 [3] (20 mg) was 6.5 fold. In addition, in the series with CYP2C19 [3] (20 mg), the “higher Cmax in the poor metabolizer in comparison with the EM group” value is “threefold”. Moreover, the Cl/F was determined as 379 mL/min in the series on CYP2C19 [3] (100 ug) and 388 mL/min in the series with CYP2C19 [3] (20 mg). In addition, the Tmax with CYP2C19 [3] (100 ug) is 21.8 min; with CYP2C19 [3] (100 ug, tmax (harmonic mean)), 15 min; in the series on CYP2C19 [3] (20 mg, tmax (harmonic mean)), 178 min. In addition, the “increase of omeprazole AUC” value in the series on CYP2C19 [4] (100 mg fluconazole daily for 5 days, healthy volunteers) is “sixfold”; in the series on CYP2C19 [4] (8 days of 50 mg fluconazole daily), 2.7–2.8 fold. Also, the “omeprazole AUC decreased to” value was 22% with CYP2C19 [4] (rifampicin 150 mg, 8 days, omeprazole microdose); 20% in the series on CYP2C19 [4] (rifampicin 150 mg, 9 days, 20 mg omeprazole); 12.9% in the series on CYP2C19 [4] (rifampicin 6 days, 450 mg daily, 20 mg omeprazole). Also, the “bioequivalence to an encapsulated formulation” value with CYP2C19 [4] (uncoated omeprazole with 48 mmol sodium bicarbonate) is recorded as “bioequivalent”.
